From article PMC2918893 (Journal of biomolecular NMR, 2009)

Molecular target: T1, HisF (cyclase subunit of imidazole glycerol phosphate synthase, IGPS) (Thermotoga maritima, UniProt Q9X0C6)
T1 sequence (Q9X0C6 1-253): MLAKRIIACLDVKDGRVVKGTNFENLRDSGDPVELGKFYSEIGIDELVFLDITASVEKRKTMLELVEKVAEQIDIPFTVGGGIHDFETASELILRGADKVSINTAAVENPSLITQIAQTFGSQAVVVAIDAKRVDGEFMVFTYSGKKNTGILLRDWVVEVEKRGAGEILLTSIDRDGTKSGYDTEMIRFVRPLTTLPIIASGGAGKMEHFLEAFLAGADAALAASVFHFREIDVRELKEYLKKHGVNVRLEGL
T1 sequence (Q9X0C8 1-201 partner): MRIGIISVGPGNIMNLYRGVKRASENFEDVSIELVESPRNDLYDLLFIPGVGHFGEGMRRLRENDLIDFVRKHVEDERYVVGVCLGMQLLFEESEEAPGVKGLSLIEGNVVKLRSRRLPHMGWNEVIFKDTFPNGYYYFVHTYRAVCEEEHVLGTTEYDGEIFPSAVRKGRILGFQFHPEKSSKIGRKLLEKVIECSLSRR
Experiment: 1H-15N TROSY NMR titration, global fit of chemical shift changes of […] residues
Type: binding

`O=P(O)(O)OC[C@@H](O)[C@@H](O)c1c[nH]cn1` [IGP] was tested, and the Kd was 500 ± 100 µM.
